Measurements reported in patent US11702422B2, “Imidazopyridazines as modulators of IL-17” (Janssen Pharmaceutica NV, priority 2020, dated 2023).

Key:
[1] = target: IL-17A(FLAG-Tagged): IL-17RA(His-Tagged) (Homo sapiens, UniProt Q16552, K93Q); test: IL-17A(FLAG-Tagged): IL-17RA(His-Tagged) Binding Disruption Eu-HTRF Assay; details: IL-17A/IL-17RA binding disruption, simple average if tested more than once
Summary of the method: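 IC50 comes from a one-site competition fit of the HTRF 665/620 nm ratio. Compound dilutions (2-fold, 22 points) were held 1 h rt with FLAG-tagged IL-17A dimer, then His-tagged IL-17RA plus Eu-cryptate anti-FLAG and D2 anti-His antibodies were added for 2 h rt.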

[2] = tested on: IL-17A-induced G-CSF production in human normal keratinocyte (NHK); test: NHK Assay: IL-17A-induced G-CSF production in human normal keratinocytes; format: cell-based; details: 24 h, adult normal human keratinocytes, IL-17A 5 ng/mL, simple average if tested more than once
Summary of the method: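 Adult normal human keratinocytes were seeded at 3000-4000 cells/well. Recombinant human IL-17A was pre-incubated 1 h at rt with titrated compound, then added to cells (final 5 ng/mL IL-17A, 0.2% DMSO, 5% FBS) for 24 h at 37° C. Supernatant G-CSF was measured by HTRF against a standard curve to give IC50.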

UniProt Q16552, sequence (Q16552 with tags, fused parts or gaps K93Q): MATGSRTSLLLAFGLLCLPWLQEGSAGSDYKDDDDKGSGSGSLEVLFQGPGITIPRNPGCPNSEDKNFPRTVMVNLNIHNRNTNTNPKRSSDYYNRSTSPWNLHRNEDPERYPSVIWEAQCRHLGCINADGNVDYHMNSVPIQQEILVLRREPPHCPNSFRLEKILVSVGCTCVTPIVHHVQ

| SMILES | IC50 [1] [nM] | IC50 ([2]; Homo sapiens, Keratinocyte) [nM] | IC50 [2] [nM] |
| --- | --- | --- | --- |
| CCc1oncc1C(=O)N[C@H](c1cn2ncc([C@H](NC(=O)CCC(F)(F)F)C3CC3)cc2n1)C1CCC(F)(F)CC1 [Example 88, N—((S)-(7-((R)-Cyclopropyl(4,4,4-trifluorobutanamido)methyl)imidazo[1,2-b]pyridazin-2-yl)(4,4-difluorocyclohexyl)methyl)-5-ethylisoxazole-4-carboxamide] | 56 | 110 |  |
| N#CCC(NC(=O)CC1CC(F)(F)C1)c1cnn2cc([C@@H](NC(=O)c3nonc3C3CC3)C3CCC(F)(F)CC3)nc2c1 (single isomer, unassigned) [Example 398, N—((S)-(7-((S*)-2-Cyano-1-(2-(3,3-difluorocyclobutyl)acetamido)ethyl)imidazo[1,2-b]pyridazin-2-yl)(4,4-difluorocyclohexyl)methyl)-4-cyclopropyl-1,2,5-oxadiazole-3-carboxamide] | 42 | 71 |  |
| CC(C)n1nccc1C(=O)N[C@H](c1cn2ncc([C@H](NC(=O)COCC(F)(F)F)C3CC3)cc2n1)C1CCC(F)(F)CC1 [Example 303, N—((S)-(7-((R)-Cyclopropyl(2-(2,2,2-trifluoroethoxy)acetamido)methyl)imidazo[1,2-b]pyridazin-2-yl)(4,4-difluorocyclohexyl)methyl)-1-isopropyl-1H-pyrazole-5-carboxamide] | 250 | 280 |  |
| O=C(CCC(F)(F)F)N[C@@H](c1cnn2cc([C@@H](NC(=O)c3cccnc3)C3CCC(F)(F)CC3)nc2c1)C1CC1 [Example 192, N—((S)-(7-((R)-Cyclopropyl(4,4,4-trifluorobutanamido)methyl)imidazo[1,2-b]pyridazin-2-yl)(4,4-difluorocyclohexyl)methyl)nicotinamide] | 240 | 1200 |  |
| CC(C)n1nncc1C(=O)N[C@H](c1cn2ncc([C@H](NC(=O)CCC(F)(F)F)C3CC3)cc2n1)C1CCC(F)(F)CC1 [Example 65, N—((S)-(7-((R)-Cyclopropyl(4,4,4-trifluorobutanamido)methyl)imidazo[1,2-b]pyridazin-2-yl)(4,4-difluorocyclohexyl)methyl)-1-isopropyl-1H-1,2,3-triazole-5-carboxamide] | 110 | 72 |  |
| CC(CC(=O)N[C@@H](c1cnn2cc([C@@H](NC(=O)c3conc3OCC(F)F)C3CCC(F)(F)CC3)nc2c1)C1CC1)C(F)(F)F (single isomer, unassigned) [Example 299, N—((S)-(7-((R)-Cyclopropyl((S*)-4,4,4-trifluoro-3-methylbutanamido)methyl)imidazo[1,2-b]pyridazin-2-yl)(4,4-difluorocyclohexyl)methyl)-3-(2,2-difluoroethoxy)isoxazole-4-carboxamide] | 300 |  | 840 |
| O=C(CCC(F)(F)F)N[C@@H](c1cnn2cc([C@@H](NC(=O)c3ccccc3CC(F)(F)F)C3CCC(F)(F)CC3)nc2c1)C1CC1 [Example 231, N—((S)-(7-((R)-Cyclopropyl(4,4,4-trifluorobutanamido)methyl)imidazo[1,2-b]pyridazin-2-yl)(4,4-difluorocyclohexyl)methyl)-2-(2,2,2-trifluoroethyl)benzamide] | 320 | > 20000 |  |
| O=C(CCC(F)(F)F)N[C@@H](c1cnn2cc([C@@H](NC(=O)c3cncc(OC(F)F)c3)C3CCC(F)(F)CC3)nc2c1)C1CC1 [Example 417, N—((S)-(7-((R)-Cyclopropyl(4,4,4-trifluorobutanamido)methyl)imidazo[1,2-b]pyridazin-2-yl)(4,4-difluorocyclohexyl)methyl)-5-(difluoromethoxy)nicotinamide] | 68 | 410 |  |
| O=C(CC1CC(F)(F)C1)N[C@@H](c1cnn2cc([C@@H](NC(=O)c3nonc3COC(F)F)C3CCC(F)(F)CC3)nc2c1)C1CC1 [Example 385, N—((S)-(7-((R)-Cyclopropyl(2-(3,3-difluorocyclobutyl)acetamido)methyl)imidazo[1,2-b]pyridazin-2-yl)(4,4-difluorocyclohexyl)methyl)-4-((difluoromethoxy)methyl)-1,2,5-oxadiazole-3-carboxamide] | 35 | 32 |  |
